How the values were obtained:
hS1P1R (hEdg1) = target: T1, hS1P1R (hEdg1) (Homo sapiens, UniProt P21453); test: hS1P1R GTPγS Binding Assay (Assay 3a); type: biochemical
T1 construct: purchased Lonza
How it was run: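 Human S1P1 receptor membranes (4 μg) incubated 1 h at room temperature with 30 μM GDP, 0.1 nM [35S]GTPγS, 0.25% fatty-acid-free BSA and serially diluted agonist in pH 7.9 Tris buffer with Mg2+ and EGTA. Bound radioactivity read by WGA SPA after a further 1 h; EC50 reported unless noted.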

S1P1 [1] = target: T2, S1P1 (Homo sapiens, UniProt P21453); test: Tango β-arrestin Recruitment Assay in HEK293 cells (Assay 2a); type: cell-based; parameters: linker with TEV protease (N1a) cleavage site (C); host or cells: HEK293, transiently transfected; settings: Tango β-arrestin Recruitment Assay, read-out: Assay 2a EC50
How it was run: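 Agonist-driven β-arrestin2–TEV recruitment releases tTA to drive luciferase in transiently transfected HEK293 cells. Ten 3-fold dilutions from 10 μM top (1% DMSO), 16–18 h at 37 °C; EC50 fitted to percent activity versus DMSO background and 5 μM S1P efficacy control.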
Target sequence in this assay (P21453 whole entry): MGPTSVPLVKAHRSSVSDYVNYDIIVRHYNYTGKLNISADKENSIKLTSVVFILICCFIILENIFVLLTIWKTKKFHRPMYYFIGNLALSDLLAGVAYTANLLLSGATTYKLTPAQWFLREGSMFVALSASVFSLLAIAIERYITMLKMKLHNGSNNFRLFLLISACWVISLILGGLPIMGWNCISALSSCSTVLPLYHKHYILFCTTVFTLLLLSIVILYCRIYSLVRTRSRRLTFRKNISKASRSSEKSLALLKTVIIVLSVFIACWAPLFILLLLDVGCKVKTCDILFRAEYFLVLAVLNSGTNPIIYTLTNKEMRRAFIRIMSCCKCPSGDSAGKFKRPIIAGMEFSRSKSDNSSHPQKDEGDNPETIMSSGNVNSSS
Target sequence in this assay (P32121 whole entry partner): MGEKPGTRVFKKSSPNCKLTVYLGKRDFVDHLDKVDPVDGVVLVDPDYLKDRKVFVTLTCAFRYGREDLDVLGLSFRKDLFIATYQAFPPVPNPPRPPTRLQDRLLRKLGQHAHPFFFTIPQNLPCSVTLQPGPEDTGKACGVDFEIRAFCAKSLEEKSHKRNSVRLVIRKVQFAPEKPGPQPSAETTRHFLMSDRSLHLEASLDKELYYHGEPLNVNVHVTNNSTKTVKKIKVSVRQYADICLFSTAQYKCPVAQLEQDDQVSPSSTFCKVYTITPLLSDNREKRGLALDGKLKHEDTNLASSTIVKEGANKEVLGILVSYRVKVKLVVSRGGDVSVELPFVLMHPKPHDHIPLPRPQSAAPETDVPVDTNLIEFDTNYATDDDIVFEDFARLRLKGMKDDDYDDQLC

S1P1 [2] = target: T2, S1P1; test: DELFIA GTP-Eu Binding Assay (Assay 3b); type: biochemical; parameters: purchased Lonza; host or cells: CHO cell membranes; settings: read-out: Assay 3b EC50
Experimental: The DELFIA GTP-Eu binding assay (PerkinElmer) is a time-resolved fluorometric assay based on GDP-GTP exchange. CHO cell membranes (Lonza) expressing human S1P1 were incubated in 96-well filter plates (Pall, East Hills, N.Y.) in a final volume of 100 μL/well buffer containing 40 μg/mL membrane, 50 mM HEPES, 2 μM GDP, 10 mM MgCl2, 100 mM NaCl, 500 μg/mL Saponin and test compound. Test compounds were tested at maximum concentrations of 10 μM. Compounds were diluted (10 concentration points, 3-fold each) and added to the assay plate at a 1% final DMSO concentration. For each compound, there were duplicate assay plates and each assay plate had duplicate wells per concentration point. The plates were incubated for 30 min at room temperature on a plate shaker at low speed. GTP-Eu was added to each well (10 μL, 10 nM final concentration) and the plate was incubated for an additional 30 min with slow shaking The wells were washed with ice cold GTP washing buffer (3×150 μL) using a vacuum manifold and the assay plates read in an EnVision plate reader (PerkinElmer) at an excitation wavelength of 340 nm and an emission wavelength of 615 nm. To determine agonist activity, percent activity was calculated as [(test compound−background)/(positive control−background)*100], where background is the fluorescence in absence of compound and the positive control is the fluorescence from membranes incubated with 1 μM S1P (Avanti). The percent activities were plotted against compound concentration to determine IC50 or EC50 using XLFit (IDBS).
Assay 1 is the CNG cAMP Assay as described in Biological Example 1. Assay 2a and 2b are the Tango™ β-arrestin Recruitment Assay in HEK293 and U2OS cells, respectively, as described in Biological Example 2. Assay 3a is the hS1P1R GTPγS Binding Assay as described in Biological Example 3. Assay 3b is the GTP-Eu Binding Assay as described in Biological Example 3. EC50's were measured unless otherwise noted. […] In the table, “nt” means the Compound was not tested and “no” means the compound was tested but had no measurable activity under the assay conditions employed.
Target sequence in this assay (P21453 whole entry): as the sequence (P21453 whole entry) above

S1P1 [3] = target: T2, S1P1; test: CNG cAMP Assay (Assay 1); type: cell-based; parameters: host or cells: HEK293 cells expressing the CNG channel; settings: read-out: Assay 1 EC50
How it was run: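 cAMP-gated CNG membrane-potential read-out (350/590 nm, T90/T0 ratio) in S1P1/CNG HEK293 cells after 90 min with compound plus NECA 500 nM, S1P 10 nM (EC95), Ro 20-1724 25 μM. Ten 3-fold points from 10 μM, 1.8% DMSO; percent activity vs NECA-only control gives EC50.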
Target sequence in this assay (P21453 whole entry): as above

T1 sequence (P21453 whole entry): as above

EC50 (hS1P1R (hEdg1)) | EC50 (S1P1 [1]) | EC50 (S1P1 [2]) | EC50 (S1P1 [3]) | Compound
100 to 500 nM | ≤ 100 nM | 100 to 500 nM | ≤ 100 nM | O=C(O)CCc1ccc(-c2nnc(-c3cn4cc(C(F)(F)F)cc(Cl)c4n3)s2)c(Cl)c1 [Example 283, 3-(3-chloro-4-{5-[8-chloro-6-(trifluoromethyl)imidazo[1,2-a]pyridin-2-yl]-1,3,4-thiadiazol-2-yl}phenyl)propanoic acid]
1000 to 5000 nM | ≤ 100 nM | 100 to 500 nM | ≤ 100 nM | Cc1c(I)ccc2nc(-c3nc(-c4cc(F)c(CCC(=O)O)cc4Cl)no3)cn12 [Example 300, 3-{5-chloro-2-fluoro-4-[5-(6-iodo-5-methylimidazo[1,2-a]pyridin-2-yl)-1,2,4-oxadiazol-3-yl]phenyl}propanoic acid]

Reference: US20100160369A1, “S1P1 Agonists and Methods of Making And Using” (EXELIXIS, INC., priority 2008, published 2010)
